Results taken from patent publication US4485117A, “Antiprotozoal compounds” (priority 1981, dated 1984).
In brackets after ≈: the same amount, converted by molar mass. Read-outs that look alike come from different tables or passages of the source.

Experiments:
cyclo oxygenase = assay: Enzyme assay, inhibition of cyclo oxygenase; type: biochemical, rabbit; conditions: in vitro
in vivo = conditions: rat, rats, oral, read-out: acute oral LD50
Procedure: The acute oral LD50 's of compounds of formula (I) in rats were determined by standard techniques.

lipoxygenase = assay: Enzyme assay, inhibition of lipoxygenase; type: biochemical, rabbit; conditions: in vitro
rat eye = assay: Anti-inflammatory activity in the rat eye (bacterial endotoxin induced); type: in vivo; conditions: assessed at 24 and 48 hours
Procedure: The anti-inflammatory activity in the rat eye was determined, following both oral and topical administration, of 2-(4-t-butylcyclohexyl)-3-hydroxy-1,4-naphthoquinone. The inflammatory response for the test employed developed following injection of gram-negative bacterial endotoxin into the rat foodpad (Rosenbaum et. al Nature 286, 611-613 (1980)).
Vasodilation was assessed at 24 and 48 hours using a slit lamp, the rats then killed and the aqueous humour aspirated for determination of protein concentrations and total leucocyte numbers. The results are shown below as ED50.

E. tenella = assay: In vitro activity against E. tenella in cell cultures; type: cell-based; conditions: Eimeria tenella, 96 hours, read-out: MIC (minimum inhibitory concentration)
Procedure: Compounds tested in Example 5 were assessed for their activity against E. tenella. In the method employed cell cultures were infected with sporozoite suspensions of E. tenella immediately after addition of the compounds. […] After incubation for 96 hours the cultures were fixed and the cells were stained with 0.1% toluidine blue. The stained cultures were examined microscopically for presence of parasites.

Plasmodium falciparum = assay: Inhibitory effect on Plasmodium falciparum in culture (G-3H-hypoxanthine uptake); type: cell-based; conditions: for IC50: P. falciparum culture, 36 hours, read-out: ED50 (the source's name)
Procedure: Compounds of the following formula, including compounds of formula (I), were examined for their inhibitory effect on Plasmodium falciparum. [drawing 11]
The test method was a modification of that described by Desjardins et al., Antimicrob. Agents and Chemotherapy,1979,16,710-718. Compounds were dissolved in ethanol at a concentration of 1000 mg/L and dilutions down to 1 mg/L were made. The drug solutions were serially diluted using RPMI 1640 medium+10% human plasma in microtitration plates. Parasitised and fresh red blood cells were added together with G^3 H-hypoxanthine, in RPMI 1640 medium+10% human plasma and the cultures incubated for 36 hours. Cultures were then harvested, the particulate contents collected on a glass-fibre filter paper and washed copiously with water. The filter papers were dried and the radioactivity measured using a scintillation counter. Infected untreated and uninfected untreated cultures were included as controls. Percent inhibition was correlated with dose to provide an ED50.

Eimeria tenella = assay: In vivo anticoccidiosis screen in chicks, E. tenella; design: species or system Eimeria tenella; male Ross Ranger chicks; conditions: 6 days, fifth day of infection, groups of 5
Procedure: (§1) Compounds tested in Example 7(a) were examined in an in vivo anticoccidiosis screen.
(§2) The compounds were administered to groups of 5 male Ross Ranger chicks (7 days old), at various dosages in the diet, for 6 days. The chicks were each infected with Eimeria tenella and E. acervulina one day after the beginning of the medication. The number of birds cleared of E. tenella lesions was noted on the fifth day of infection as was the presence or absence of E. acervulina oocysts in the droppings. The results are shown in Table 3, in which the numbers refer to the number of birds cleared of E. tenella and the letters indicate the presence or absence of E. acervulina /A=absent; P=present; M=95% clearance in comparision with untreated controls/.

E. acervulina = assay: In vivo anticoccidiosis screen in chicks, E. acervulina; design: species or system Eimeria acervulina; male Ross Ranger chicks; key: A: absent; P: present; M: 95% clearance in comparision with untreated controls; conditions: 6 days, fifth day of infection
Procedure: as §1, §2

malaria = conditions: background art; cited from earlier work

Compound CC(C)(C)C1CCC(C2=C(O)C(=O)c3ccccc3C2=O)CC1 (stereo not shown) [2-(4'-t-butylcyclohexyl)-3-hydroxy-1,4-naphthoquinone] has an IC50 (cyclo oxygenase) of 58000 nM, an LD50 (in vivo) of over 1000 mg/kg and an IC50 (lipoxygenase) of 23000 nM. For the same compound, the ED50 (rat eye; Rattus norvegicus, oral) was 5 to 25 mg/kg and the “ED50, anti-inflammatory activity in the rat eye” value (rat eye; topical) was 10-20 ug/eye.

With CCC(C)(C)C1CCC(C2=C(O)C(=O)c3ccccc3C2=O)CC1 (stereo not shown) [2-hydroxy-3-(4'-t-pentylcyclohexyl)-1,4-naphthoquinone] the IC50 (cyclo oxygenase) was 63000 nM and the IC50 (lipoxygenase) was 29000 nM.

CC(C)(C)C1CCCC(C2=C(O)C(=O)c3ccccc3C2=O)C1 (stereo not drawn) [3'-t-Butyl (80% trans), reference compound] gave an MIC (E. tenella) of 4 µM (≈ 1.25 µg/mL) and an IC50 (Plasmodium falciparum; Plasmodium falciparum, 36 h) of 300 nM.

With O=C1C(O)=C([C@H]2CC[C@H](C3CCCCC3)CC2)C(=O)c2ccccc21 [4'-Cyclohexyl (100% trans), reference compound] the “number of birds cleared of E. tenella lesions” value (shortened to “number”) (Eimeria tenella; 50 ppm in diet) was 1/5, the “number” value (Eimeria tenella; 100 ppm in diet) was 5/5 and the “number” value (Eimeria tenella; 200 ppm in diet) was 5/5. For the same compound, the “presence or absence of E. acervulina oocysts in the droppings” value (from here on “presence or absence”) (E. acervulina; 50 ppm in diet) was “P”, the “presence or absence” value (E. acervulina; 100 ppm in diet) was “P” and the “presence or absence” value (E. acervulina; 200 ppm in diet) was “A”. For the same compound, the MIC (E. tenella) was 0.092 µM (≈ 0.0311 µg/mL) and the IC50 (Plasmodium falciparum; Plasmodium falciparum, 36 h) was 4.05 nM.

In the case of C[C@H]1CC[C@H](C2=C(O)C(=O)c3ccccc3C2=O)CC1 [4'-Methyl (100% trans), reference compound], the MIC (E. tenella) is reported as 0.46 µM (≈ 0.124 µg/mL) and the IC50 (Plasmodium falciparum; Plasmodium falciparum, 36 h) is reported as 9.2 nM.

CC(C)(C)C1CCC(C2=C(O)C(=O)c3ccccc3C2=O)CC1 (stereo not drawn) [4'-t-Butyl (50% trans), 2-(4'-t-butylcyclohexyl)-3-hydroxy-1,4-naphthoquinone] showed an IC50 (Plasmodium falciparum; 2160 min) of 0.599 nM.

With CC(C)(C)C1CCC(C2=C(O)C(=O)c3ccccc3C2=O)CC1 (stereo not drawn) [4'-t-Butyl (75% trans), 2-(4'-t-butylcyclohexyl)-3-hydroxy-1,4-naphthoquinone] the IC50 (Plasmodium falciparum; 2160 min) was 0.0563 nM.

In the case of CC(C)(C)C1CCC(C2=C(O)C(=O)c3ccccc3C2=O)CC1 (stereo not drawn) [4'-t-Butyl (80% trans), 2-(4'-t-butylcyclohexyl)-3-hydroxy-1,4-naphthoquinone], the “number” value (Eimeria tenella; 50 ppm in diet) is reported as 0/5, the “number” value (Eimeria tenella; 100 ppm in diet) is reported as 5/5 and the “presence or absence” value (E. acervulina; 50 ppm in diet) is reported as “P”. For the same compound, the “presence or absence” value (E. acervulina; 100 ppm in diet) was “A”, the MIC (E. tenella) was 0.01 µM (≈ 0.00312 µg/mL) and the IC50 (Plasmodium falciparum; 2160 min) was 0.0375 nM.

Compound CC(C)(C)[C@H]1CC[C@@H](C2=C(O)C(=O)c3ccccc3C2=O)CC1 [4'-t-Butyl (100% cis), 2-(cis-4'-t-butylcyclohexyl)-3-hydroxy-1,4-naphthoquinone] has an MIC (E. tenella) of 0.025 µM (≈ 0.00781 µg/mL) and an IC50 (Plasmodium falciparum; Plasmodium falciparum, 36 h) of 1.08 nM.

With CC(C)(C)[C@H]1CC[C@H](C2=C(O)C(=O)c3ccccc3C2=O)CC1 [4'-t-Butyl (100% trans), 2-(trans-4'-t-butylcyclohexyl)-3-hydroxy-1,4-naphthoquinone] the IC50 (Plasmodium falciparum; Plasmodium falciparum, 36 h) was 0.0571 nM.

CCC(C)(C)C1CCC(C2=C(O)C(=O)c3ccccc3C2=O)CC1 (stereo not drawn) [4'-t-Pentyl (50% trans), 2-hydroxy-3-(4'-t-pentylcyclohexyl)-1,4-naphthoquinone] gave an MIC (E. tenella) of 0.0096 µM (≈ 0.00313 µg/mL).

For CCC(C)(C)C1CCC(C2=C(O)C(=O)c3ccccc3C2=O)CC1 (stereo not drawn) [4'-t-Pentyl (60% trans), 2-hydroxy-3-(4'-t-pentylcyclohexyl)1,4-naphthoquinone], the “number” value (Eimeria tenella; 50 ppm in diet) was 4/5, the “number” value (Eimeria tenella; 100 ppm in diet) was 5/5 and the “number” value (Eimeria tenella; 200 ppm in diet) was 5/5. For the same compound, the “presence or absence” value (E. acervulina; 50 ppm in diet) was “M (95% clearance in comparision with untreated controls)”, the “presence or absence” value (E. acervulina; 100 ppm in diet) was “A” and the “presence or absence” value (E. acervulina; 200 ppm in diet) was “A”. For the same compound, the IC50 (Plasmodium falciparum; Plasmodium falciparum, 36 h) was 0.06 nM.

In the case of O=C1C(O)=C(CCCCCCCCC2CCCCC2)C(=O)c2ccccc21 [Menoctone, 2-(8-cyclohexyloctyl)-3-hydroxy-1,4-naphthoquinone, reference compound], the ED50 (Plasmodium falciparum; 36 h) is given as 2.55×10^-7 and the “activity in man (in words)” value (malaria) is given as “poor activity in man”.
